The values that follow come from publication PMC9290002, “Development of Urea-Bond-Containing Michael Acceptors as Antitrypanosomal Agents Targeting Rhodesain” (ACS Medicinal Chemistry Letters, 2022).

Read-outs that look alike come from different tables or passages of the source.

The target in assay [1] is T1, rhodesain (Trypanosoma brucei rhodesiense, UniProt Q95PM0). The conditions noted are these: cited from earlier work; for RD, k2nd: Figure 1.
The test system of the next assay is BSF of T.b. Further details: method as in PMID 19620707. The conditions noted are these: bloodstream form; Figure 1; cited from earlier work.
For assay [2], the system named is T. b. brucei. Further details: method as in PMID 31714776, PMID 28763614. The conditions noted are these: Figure 1; cited from earlier work.
The target of assay [3] is T1, rhodesain. The assay can be described thus: Rhodesain fluorogenic enzyme assay (Cbz-Phe-Arg-AMC). It counts as biochemical. Conditions: for Ki: dissociation constant of noncovalent E·I complex, corrected to zero substrate concentration; for Rhodesain k2nd: k2nd = kinact/Ki.
The test system of assay [4] is T. b. brucei. The assay can be described thus: Antitrypanosomal activity against cultured T. b. brucei (ATPlite assay). It counts as cell-based. Conditions: Trypanosoma brucei, 24 h. As to the method:
All the urea derivatives were tested against cultured T. b. brucei, which expresses rhodesain similarly to T. b. rhodesiense. […] The difference in terms of rhodesain inhibition and antitrypanosomal activity observed for 1 could be due to its poor cell membrane permeability. In fact, we assume that the presence of substituents on the phenyl ring at the P3 position, as well as the extension of the aromatic region, could influence the crossing of cell membranes.
EC50 values for the antitrypanosomal activity were determined using the ATPlite assay as previously
On the technique in general: In ATP-based viability assays light output follows the ATP content of the culture.

The target in assay [5] is human cathepsin L (hCatL) (Homo sapiens, UniProt P07711). Nature of the assay: Enzyme assay towards hCatL. It counts as biochemical.
Chain of human cathepsin L (hCatL) (P07711 114-333): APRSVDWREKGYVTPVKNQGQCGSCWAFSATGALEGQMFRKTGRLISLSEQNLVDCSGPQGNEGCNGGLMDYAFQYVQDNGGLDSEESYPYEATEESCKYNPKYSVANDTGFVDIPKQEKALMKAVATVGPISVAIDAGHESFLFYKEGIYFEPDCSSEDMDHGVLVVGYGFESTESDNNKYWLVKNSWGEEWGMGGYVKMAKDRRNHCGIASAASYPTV
Assay [6] deals with T2, main protease (Mpro) of SARS-CoV-2 (Severe acute respiratory syndrome coronavirus 2, UniProt P0DTD1).
T2 construct: the main protease (M^pro) of SARS-CoV-2
The assay can be described thus: Enzyme assay towards SARS-CoV-2 Mpro, preliminary screening. The conditions noted are these: preliminary screening at 100 μM; read-out: SARS-CoV-2 Mpro percentage of inhibition. It is filed as biochemical. As to the method: In light of this, dilution assays characterizing the mode of inhibition were not performed. Since poor inhibition was shown by the Phe-containing analogues, the Leu derivatives 25 and 26 were not tested against SARS-CoV-2 M^pro.
In all the manipulations regarding the biological evaluation, no unexpected or unusually high safety hazards […]
Enzyme assays towards rhodesain.
The biological activity against rhodesain was evaluated by fluorescence-based assays and all tested compounds were diluted in DMSO. Rhodesain was recombinantly expressed as previously reported2,3 and Cbz-Phe-Arg-AMC (10 µM) was used as the fluorogenic substrate. In the preliminary screening at 0.1 µM, the substrate hydrolysis was determined over a period of 10 min at rt and fluorescence intensity was measured every 30 seconds, whereas the kinetic parameters after the dilutions were determined over a period of 30 min. The assay buffer (pH 5.5) contains 50 mM of sodium acetate, 5 mM of EDTA, 200 mM of NaCl, and 0.005% of Brij 35. Enzyme buffer (pH 5.5) contains 5 mM of DTT and the same chemicals used for assay buffer, with exception of Brij 35. Each independent assay was carried-out twice in duplicate using 96-well-plates in a final volume of 200 µL. Infinity 200 PRO microplate (Tecan, Männedorf, Switzerland) was employed as the fluorescence reader, and a 380 nm excitation filter and a 460 nm emission filter were used.
The first-order inactivation rate costants (k obs) were determined analyzing the progress curves by nonlinear regression analysis using the equation 1 shown in the Chart S1. 4 The obtained k obs values were fitted against the inhibito concentrations to the hyperbolic equation 2, providing the k inact and K iapp values. The latter were corrected to zero substrate concentration by the term (1+[S]/K m) in equation 3. The K m value used to correct K iapp values was determined to 0.9 μM. 5 K i and k inac values were calculated by nonlinear regression analyses using GraFit.6 The second-order rate constants k 2nd = k inact/K i were easily determined from the […]
Chart S1. Equations 1, 2, and 3.
Enzyme assays towards hCatL.
The biological evaluation towards hCatL was performed following the procedure reported in the literature.7 Enzyme assays towards SARS-CoV-2 Mpro.
The biological activity of novel Michael acceptors 1-9 against SARS-CoV-2 M pro was carried-out following the previously described protocol.8
Antitrypanosomal activity.
(1 picture or pasted object on this page, not shown here)

T1 sequence (Q95PM0 entry or part of it): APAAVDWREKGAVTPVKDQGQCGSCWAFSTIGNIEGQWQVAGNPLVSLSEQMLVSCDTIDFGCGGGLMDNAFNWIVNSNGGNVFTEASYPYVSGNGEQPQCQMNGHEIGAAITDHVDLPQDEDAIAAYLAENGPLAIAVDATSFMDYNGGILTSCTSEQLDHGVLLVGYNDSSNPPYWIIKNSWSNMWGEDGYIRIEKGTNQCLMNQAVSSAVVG

Regarding `CC(C)C[C@H](NC(=O)[C@H]1O[C@@H]1C(=O)O)C(=O)NCCCCN=C(N)N` [E64], on rhodesain [1], the Ki was 35 ± 5 nM, the “Rhodesain k2nd” value is 261 ± 27 ×10^3 M^–1 min^–1 and the Rhodesain kinact is reported as 0.0090 ± 0.0004 min^–1.

For the compound `CN1CCN(C(=O)N[C@@H](Cc2ccccc2)C(=O)N[C@H](/C=C/S(=O)(=O)c2ccccc2)CCc2ccccc2)CC1` [K11777], at rhodesain [1], the “RD, k2nd” value is 9e+06 M⁻¹ min⁻¹ and the “Rhodesain k2nd” value is reported as 9000 ×10^3 M^–1 min^–1. Further, in the assay with BSF of T.b., the “BSF of T.b., ED50” value was 0.9 µM.

As to `CC(=O)/C=C/[C@H](CCc1ccccc1)NC(=O)[C@H](Cc1ccccc1)NC(=O)c1ccc(F)cc1` [PS-1], the “RD, k2nd” value on rhodesain [1] was 8.81e+08 M⁻¹ min⁻¹. In addition, in the assay with T. b. brucei [2], the EC50 – broadly, the midpoint of the concentration-response curve – is 3.6 µM.

In the case of `CC(=O)/C=C/[C@H](CCc1ccccc1)NC(=O)[C@H](Cc1ccccc1)NC(=O)OCc1ccccc1` [RK-52], the “RD, k2nd” value at rhodesain [1] was 6.7e+07 M⁻¹ min⁻¹. Further, the EC50 with T. b. brucei [2] is 2.97 µM.

For the compound `CC(=O)/C=C/[C@H](CCc1ccccc1)NC(=O)[C@H](Cc1ccccc1)NC(=O)Nc1ccccc1` [compound 1, (S)-N-((S,E)-6-Oxo-1-phenylhept-4-en-3-yl)-3-phenyl-2-(3-phenylureido)propenamide], the Ki at rhodesain [3] stood at 0.15 ± 0.06 nM. A half-maximal response in the assay on T. b. brucei [4] (EC50) required 19800 ± 2670 nM. In assay [5], the Ki worked out at 0.11 ± 0.01 nM, the “hCatL k2nd” value is listed as 5920 ± 150 x 103M-1 min-1 and the maximal inactivation rate constant (kinact) (commonly the rate constant of inactivation at saturating inhibitor) is 1e-05 s⁻¹. The inhibition (usually the share of the control response that was lost under treatment) at 100 µM in assay [6] is 33 to 66%.

As for `COc1ccc(NC(=O)N[C@@H](Cc2ccccc2)C(=O)N[C@H](/C=C/C(C)=O)CCc2ccccc2)cc1` [compound 2, (S)-2-(3-(4-Methoxyphenyl)ureido)-N-((S,E)-6-oxo-1-phenylhept-4-en-3-yl)-3-phenylpropanamide], at rhodesain [3], the Ki is 1.05 ± 0.33 nM and the “Rhodesain k2nd” value is 5820 ± 490 ×10^3 M^–1 min^–1. In addition, the concentration giving a half-maximal response (EC50) in the assay on T. b. brucei [4] was 2080 ± 220 nM. Moreover, in assay [5], the Ki was 81.9 ± 1.06 nM, the “hCatL k2nd” value is 9 ± 1 x 103M-1 min-1 and the inactivation rate constant (kinact) was 1.33e-05 s⁻¹. For the same compound, in assay [6], the inhibition at 100 µM was 33 to 66%.

As to `CC(=O)/C=C/[C@H](CCc1ccccc1)NC(=O)[C@H](Cc1ccccc1)NC(=O)Nc1ccc(C)cc1` [compound 3, (S)-N-((S,E)-6-Oxo-1-phenylhept-4-en-3-yl)-3-phenyl-2-(3-(p-tolyl)ureido)propanamide], the Ki on rhodesain [3] worked out at 0.51 ± 0.38 nM. Also, the concentration for a half-maximal effect (EC50) in the assay on T. b. brucei [4] amounted to 1390 ± 230 nM. In assay [5], the Ki came to 1.32 ± 0.25 nM, the “hCatL k2nd” value is 360 ± 106 x 103M-1 min-1 and the kinact is 7.5e-06 s⁻¹. Besides, the inhibition at 100 µM in assay [6] was 33 to 66%.

Take `CC(=O)/C=C/[C@H](CCc1ccccc1)NC(=O)[C@H](Cc1ccccc1)NC(=O)Nc1ccc(F)cc1` [compound 4, (S)-2-(3-(4-Fluorophenyl)ureido)-N-((S,E)-6-oxo-1-phenylhept-4-en-3-yl)-3-phenylpropanamide]: on rhodesain [3], the Ki amounted to 0.85 ± 0.07 nM and the “Rhodesain k2nd” value is on record as 2480 ± 50 ×10^3 M^–1 min^–1. The same compound had a 50% effective concentration (EC50) in the assay with T. b. brucei [4] of 1510 ± 80 nM. Moreover, in assay [5], the Ki amounted to 0.1 ± 0.01 nM, the “hCatL k2nd” value is listed as 5880 ± 120 x 103M-1 min-1 and the kinact is 1e-05 s⁻¹. In addition, in assay [6], the inhibition at 100 µM lay within 33 to 66%.

Consider `CC(=O)/C=C/[C@H](CCc1ccccc1)NC(=O)[C@H](Cc1ccccc1)NC(=O)Nc1c(F)cccc1F` [compound 5, (S)-2-(3-(2,6-Difluorophenyl)ureido)-N-((S,E)-6-oxo-1-phenylhept-4-en-3-yl)-3-phenylpropanamide], for which, at rhodesain [3], the Ki turned out to be 1.13 ± 0.26 nM and the “Rhodesain k2nd” value is 2030 ± 230 ×10^3 M^–1 min^–1. The same compound yielded an EC50 in the assay with T. b. brucei [4] of 3200 ± 280 nM. Further, in assay [5], the Ki was found to be 2.14 ± 0.25 nM, the “hCatL k2nd” value is given as 326 ± 8 x 103M-1 min-1 and the inactivation rate constant (kinact) is 1.17e-05 s⁻¹. The inhibition at 100 µM in assay [6] is 33 to 66%.

Regarding `CC(=O)/C=C/[C@H](CCc1ccccc1)NC(=O)[C@H](Cc1ccccc1)NC(=O)Nc1ccc(Cl)cc1` [compound 6, (S)-2-(3-(4-Chlorophenyl)ureido)-N-((S,E)-6-oxo-1-phenylhept-4-en-3-yl)-3-Phenylpropanamide], at rhodesain [3], the Ki amounted to 0.78 ± 0.13 nM and the “Rhodesain k2nd” value is listed as 2990 ± 300 ×10^3 M^–1 min^–1. For the same compound, in the assay on T. b. brucei [4], the response was half-maximal at 1500 ± 240 nM (EC50). Further, in assay [5], the Ki was found to be 3.11 ± 1.63 nM, the “hCatL k2nd” value was 321 ± 152 x 103M-1 min-1 and the kinact was 1.25e-05 s⁻¹. The inhibition at 100 µM in assay [6] lay in the range of 33 to 66%.

At rhodesain [3], `CC(=O)/C=C/[C@H](CCc1ccccc1)NC(=O)[C@H](Cc1ccccc1)NC(=O)Nc1ccc(Cl)cc1C` [compound 7, (S)-2-(3-(4-Chloro-2-methylphenyl)ureido)-N-((S,E)-6-oxo-1-phenylhept-4-en-3-yl)-3-phenylpropanamide] yielded a Ki of 0.51 ± 0.36 nM. This compound returned a half-maximal effective concentration (EC50) in the assay with T. b. brucei [4] of 1650 ± 70 nM. In assay [5], the Ki was found to be 0.18 ± 0.03 nM, the “hCatL k2nd” value is 3110 ± 160 x 103M-1 min-1 and the inactivation rate constant (kinact) was 9.17e-06 s⁻¹. Besides, the inhibition at 100 µM in assay [6] lay in the range of 33 to 66%.

Consider `CC(=O)/C=C/[C@H](CCc1ccccc1)NC(=O)[C@H](Cc1ccccc1)NC(=O)Nc1ccc(Cl)cc1C(F)(F)F` [compound 8, (S)-2-(3-(4-Chloro-2-(trifluoromethyl)phenyl)ureido)-N-((S,E)-6-oxo-1-phenylhept-4-en-3-yl)-3-phenylpropanamide], for which, on rhodesain [3], the Ki came to 1.04 ± 0.31 nM and the “Rhodesain k2nd” value was 6050 ± 790 ×10^3 M^–1 min^–1. The response with T. b. brucei [4] was half-maximal at 1280 ± 40 nM (EC50). In assay [5], the Ki was 2.27 ± 0.43 nM, the “hCatL k2nd” value is on record as 256 ± 71 x 103M-1 min-1 and the kinact was 9.17e-06 s⁻¹. The inhibition at 100 µM in assay [6] is 33 to 66%.

With `CC(=O)/C=C/[C@H](CCc1ccccc1)NC(=O)[C@H](Cc1ccccc1)NC(=O)Nc1cccc2ccccc12` [compound 9, (S)-2-(3-(Naphthalen-1-yl)ureido)-N-((S,E)-6-oxo-1-phenylhept-4-en-3-yl)-3-phenylpropanamide], on rhodesain [3], the Ki stood at 2.51 ± 1.51 nM and the “Rhodesain k2nd” value is given as 4170 ± 1360 ×10^3 M^–1 min^–1. The same compound showed an EC50 in the assay with T. b. brucei [4] of 2280 ± 270 nM. Also, in assay [5], the Ki was 0.051 ± 0.001 nM, the “hCatL k2nd” value is on record as 12820 ± 1050 x 103M-1 min-1 and the kinact was 1.08e-05 s⁻¹. The inhibition at 100 µM in assay [6] is 33 to 66%.

In turn, `CC(=O)/C=C/[C@H](CCc1ccccc1)NC(=O)[C@H](CC(C)C)NC(=O)Nc1ccc(C)cc1` [compound 25, (S)-4-Methyl-N-((S,E)-6-oxo-1-phenylhept-4-en-3-yl)-2-(3-(p-tolyl)ureido)pentanamide] yielded a Ki at rhodesain [3] of 0.42 ± 0.08 nM. In the assay on T. b. brucei [4], this compound yielded an EC50 of 1540 ± 90 nM. Also, in assay [5], the Ki was found to be 0.64 ± 0.02 nM, the “hCatL k2nd” value is 2120 ± 6 x 103M-1 min-1 and the kinact is 2.25e-05 s⁻¹.

`CC(=O)/C=C/[C@H](CCc1ccccc1)NC(=O)[C@H](CC(C)C)NC(=O)Nc1ccc(Cl)cc1C` [compound 26, (S)-2-(3-(4-chloro-2-methylphenyl)ureido)-4-methyl-N-((S,E)-6-oxo-1-phenylhept-4-en-3-yl)pentanamide]: on rhodesain [3], the Ki was found to be 0.93 ± 0.52 nM. Also, in the assay on T. b. brucei [4], a half-maximal effect (EC50) was put at 1120 ± 50 nM. In assay [5], the Ki came out at 0.07 ± 0.03 nM, the “hCatL k2nd” value is 14240 ± 5410 x 103M-1 min-1 and the inactivation rate constant (kinact) is 1.42e-05 s⁻¹.
